From article PMC11242993, “Evaluation of the Therapeutic Potential of Sulfonyl Urea Derivatives as Soluble Epoxide Hydrolase (sEH) Inhibitors” (Molecules, 2024) come the findings set out here.

One data set has as its target T1, human recombinant sEH (Homo sapiens, UniProt P34913).
T1 construct: purchased Cayman Chemical 10011671
T1 sequence (P34913 1-555): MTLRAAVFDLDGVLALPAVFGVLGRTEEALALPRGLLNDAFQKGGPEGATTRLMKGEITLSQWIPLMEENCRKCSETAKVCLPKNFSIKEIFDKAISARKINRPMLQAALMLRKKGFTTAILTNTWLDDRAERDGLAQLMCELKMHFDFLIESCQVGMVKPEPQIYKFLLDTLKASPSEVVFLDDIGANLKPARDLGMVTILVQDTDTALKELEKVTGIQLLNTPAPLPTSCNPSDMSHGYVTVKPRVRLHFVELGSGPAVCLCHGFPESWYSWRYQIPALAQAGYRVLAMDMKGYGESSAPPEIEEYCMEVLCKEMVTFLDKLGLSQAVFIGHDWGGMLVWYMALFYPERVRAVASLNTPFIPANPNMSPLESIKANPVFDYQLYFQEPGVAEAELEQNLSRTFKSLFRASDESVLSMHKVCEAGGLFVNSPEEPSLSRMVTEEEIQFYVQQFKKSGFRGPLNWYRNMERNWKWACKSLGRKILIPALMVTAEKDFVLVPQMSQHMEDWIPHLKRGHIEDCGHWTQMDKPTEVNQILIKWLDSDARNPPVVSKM
Nature of the data set: Fluorescence-based sEH activity assay (PHOME substrate), human enzyme. It is filed as biochemical. The settings on record: for IC50: dose-dependent assay, read-out: Human sEH Inhibition IC50. The procedure: A fluorescence-based sEH activity assay provided a convenient method for screening human epoxide hydrolase inhibitors. The assay utilized (3-Phenyl-oxiranyl)-acetic acid cyano-(6-methoxy-naphthalen-2-yl)-methyl ester (PHOME) as a substrate. […] The inhibitory function of the compounds on sEH activity was tested as detailed in the product manual from Cayman Chemical. Briefly, 3 mL sEH assay buffer (10×) was diluted with 27 mL HPLC-grade water. This final assay buffer, 25 mM bis-tris (pH 7.0), was used in the assay and for the dilution of the soluble epoxide hydrolase (sEH) enzyme. Amounts of 12 μL each of human and mouse recombinant sEH were thawed on ice. Prior to assaying, 588 μL cold assay buffer was added directly to the enzyme vial. An amount of 190 μL assay buffer and 5 μL solvent (40% DMSO in assay buffer) were added to the background wells. In the 100% initial activity wells, 185 μL assay buffer, 5 μL sEH, and 5 μL solvent were added. In inhibitor wells, 185 μL assay buffer, 5 μL solution of the synthesized compounds, and 5 μL of recombinant enzyme solution were added.
(§1) Average fluorescence (AF) of the background wells and 100% initial activity in the wells and of each of the inhibitors were determined. The background AF was subtracted from the 100% initial activity and inhibitor AFs. The % sEH activity is calculated as (inhbitited AF/% 100 initial activity) × 100.
(§2) Multiple concentrations of the inhibitors were tested followed by plotting of the percent activity as a function of inhibitor concentration to determine the IC50 values.

In the next data set the target is T2, mouse recombinant sEH (Mus musculus, UniProt P34914).
T2 sequence (P34914 1-554): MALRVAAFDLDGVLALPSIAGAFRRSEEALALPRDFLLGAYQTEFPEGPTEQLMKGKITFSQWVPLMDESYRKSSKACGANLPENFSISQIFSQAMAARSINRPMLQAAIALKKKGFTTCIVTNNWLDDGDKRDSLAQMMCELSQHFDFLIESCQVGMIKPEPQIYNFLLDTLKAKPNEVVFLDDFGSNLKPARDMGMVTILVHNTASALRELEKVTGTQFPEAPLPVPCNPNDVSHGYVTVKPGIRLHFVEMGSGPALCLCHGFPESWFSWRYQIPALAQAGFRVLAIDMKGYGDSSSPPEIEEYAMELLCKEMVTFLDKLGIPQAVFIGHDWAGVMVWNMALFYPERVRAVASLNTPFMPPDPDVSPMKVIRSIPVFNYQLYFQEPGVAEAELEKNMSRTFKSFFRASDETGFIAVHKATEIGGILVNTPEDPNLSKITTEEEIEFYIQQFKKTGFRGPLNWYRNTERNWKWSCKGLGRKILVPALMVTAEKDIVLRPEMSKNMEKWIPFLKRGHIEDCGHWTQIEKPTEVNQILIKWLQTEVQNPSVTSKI
Kind of data set: Fluorescence-based sEH activity assay (PHOME substrate), mouse enzyme. In kind it is biochemical. The following applies: dose-dependent assay; read-out: Mouse sEH Inhibition IC50. Here is the method:
A fluorescence-based sEH activity assay provided a convenient method for screening human epoxide hydrolase inhibitors. The assay utilized (3-Phenyl-oxiranyl)-acetic acid cyano-(6-methoxy-naphthalen-2-yl)-methyl ester (PHOME) as a substrate. […] The inhibitory function of the compounds on sEH activity was tested as detailed in the product manual from Cayman Chemical. Briefly, 3 mL sEH assay buffer (10×) was diluted with 27 mL HPLC-grade water. This final assay buffer, 25 mM bis-tris (pH 7.0), was used in the assay and for the dilution of the soluble epoxide hydrolase (sEH) enzyme. Amounts of 12 μL each of human and mouse recombinant sEH were thawed on ice. Prior to assaying, 588 μL cold assay buffer was added directly to the enzyme vial. An amount of 190 μL assay buffer and 5 μL solvent (40% DMSO in assay buffer) were added to the background wells. In the 100% initial activity wells, 185 μL assay buffer, 5 μL sEH, and 5 μL solvent were added. In inhibitor wells, 185 μL assay buffer, 5 μL solution of the synthesized compounds, and 5 μL of recombinant enzyme solution were added. To start the reaction, 5 μL of PHOME was added to each well at a final concentration of 0.25 mM. The microwell plate was shaken carefully for 10 s and covered with a plate cover.
as §1, §2

Data set [1] is described as follows: In vivo pharmacokinetic experiment. On the set-up: species or system C57BL/6J mice. The following applies: male, C57BL/6J, mouse, serum, other: oral and intraperitoneal; mice, oral and intraperitoneal administration, 10 mg/kg; read-out: plasma half-life. The procedure:
Twenty 8–9-week-old male C57BL/6J mice were taken for the in vivo pharmacokinetic experiment. They were divided into four groups, each containing five mice. Each group was used for either oral or intraperitoneal administration of compound 4f or 15a. Both the compounds were reconstituted in 5% DMSO, 5% TWEEN 80 in saline water (pH = 7.4). The mice were orally and intraperitoneally administered compounds at 10 mg/kg dose. Blood samples were collected at 0, 0.5, 1, 2, 4, 6, and 24 h after administration of the compound, and serum was isolated with the compound. For the pharmacokinetic study, 10 μL of serum samples from mice were extracted with a 2:1 mixture of LC/MS-grade chloroform and methanol, followed by intermittent vortexing, and then centrifuged at 4000 rpm for 10 min at 4 °C. Thereafter, the supernatant was collected and analyzed by LC−MS/MS to measure the concentrations of compounds 4f and 15a in the serum.

Usually IC50 stands for the point on the concentration scale where inhibition reaches its midpoint. Turning to `Cc1ccc(S(=O)(=O)NC(=O)NC23CC4CC(CC(C4)C2)C3)cc1` [Compound 4b, N-((adamantan-1-yl)carbamoyl)-4-methylbenzenesulfonamide], at human recombinant sEH, the “Human sEH % Inhibition” value worked out at 91.78% and the IC50 was found to be 16.3 nM. Also, on mouse recombinant sEH, the IC50 was found to be 850 nM.

On to `COc1ccc(S(=O)(=O)NC(=O)NC23CC4CC(CC(C4)C2)C3)cc1` [Compound 4e], for which, on human recombinant sEH, the “Human sEH % Inhibition” value stood at 95.39% and the IC50 is 2.94 nM. Besides, the IC50 on mouse recombinant sEH was greater than 1000 nM.

Take `O=C(NC12CC3CC(CC(C3)C1)C2)NS(=O)(=O)c1ccc(F)cc1` [Compound 4j]: the “Human sEH % Inhibition” value on human recombinant sEH came to 85.26%. Moreover, the concentration for half-maximal inhibition (IC50) at human recombinant sEH was 120 nM; on mouse recombinant sEH, greater than 1000 nM.

As for `O=C(NC12CC3CC(CC(C3)C1)C2)NS(=O)(=O)c1ccc(Cl)cc1` [Compound 4k], on human recombinant sEH, the “Human sEH % Inhibition” value came to 96.47% and the IC50 was 2 nM. Also, on mouse recombinant sEH, the IC50 was greater than 1000 nM.

Take `O=S(=O)(NC(=S)NC12CC3CC(CC(C3)C1)C2)c1ccccc1` [Compound 6a, N-((adamantan-1-yl)carbamothioyl)benzenesulfonamide]: on human recombinant sEH, the “Human sEH % Inhibition” value is given as 84.56% and the half-inhibitory concentration (IC50) came to 130 nM. Moreover, on mouse recombinant sEH, the IC50 was greater than 1000 nM.

Regarding `O=S(=O)(NC(=S)NC12CC3CC(CC(C3)C1)C2)c1ccc(OC(F)(F)F)cc1` [Compound 6d, N-((adamantan-1-yl)carbamothioyl)-4-(trifluoromethoxy)benzenesulfonamide], on human recombinant sEH, the “Human sEH % Inhibition” value came to 96.24% and the IC50 is 4.66 nM. Moreover, the IC50 at mouse recombinant sEH came to 110 nM.

Broadly, the half-life is the time needed for the level to fall by half in the phase considered. As for `CC12CC3CC(C)(C1)CC(NC(=O)NS(=O)(=O)c1ccc(OC(F)(F)F)cc1)(C3)C2` [Compound 15a, N-((3,5-dimethyladamantan-1-yl)carbamoyl)-4-(trifluoromethoxy)benzenesulfonamide], at human recombinant sEH, the “Human sEH % Inhibition” value worked out at 92.06% and the half-maximal inhibitory concentration (IC50) worked out at 3.87 nM. In addition, the IC50 on mouse recombinant sEH is 22 nM. The half-life in data set [1] is less than 2 h.

Turning to `CC12CC3CC(C)(C1)CC(NC(=O)NS(=O)(=O)c1ccc4ccccc4c1)(C3)C2` [Compound 15b, N-((3,5-dimethyladamantan-1-yl)carbamoyl)naphthalene-2-sulfonamide], on human recombinant sEH, the “Human sEH % Inhibition” value was found to be 47.05% and the IC50 was found to be 950 nM. On mouse recombinant sEH, the IC50 is greater than 1000 nM.

For the molecule `O=C(NC1CCN(C(=O)NC23CC4CC(CC(C4)C2)C3)CC1)NS(=O)(=O)c1ccc(OC(F)(F)F)cc1` [Compound 18, N-(1-((adamantan-1-yl)carbamoyl)piperidin-4-yl)-N′-((4-(trifluoromethoxy)phenyl)sulfonyl)carbamimidic acid], at human recombinant sEH, the “Human sEH % Inhibition” value is on record as 60.80%. Besides, the IC50 turned out to be 38.7 nM on human recombinant sEH and 710 nM at mouse recombinant sEH.
